The values below come from ChEMBL document CHEMBL1201862, “PubChem BioAssay data set” (2004).

Activity calls are given as the source filed them.

Experiment [1] can be described thus: CFTR ΔF508 corrector activity in bronchial cells, dose response, human bronchial epithelial cells, plate reader, cherry-pick, two tests (AID 743267). In kind it is functional, cell-based.
Experiment [2] is described as follows: T. cruzi growth inhibition in host cells, dose response, cell-based, plate reader, dry powder, set 2 (AID 652275). In kind it is functional.
Experiment [3] concerns the target T1, Scavenger receptor class B member 1 (Mus musculus, UniProt Q61009).
T1 sequence (Q61009 whole entry): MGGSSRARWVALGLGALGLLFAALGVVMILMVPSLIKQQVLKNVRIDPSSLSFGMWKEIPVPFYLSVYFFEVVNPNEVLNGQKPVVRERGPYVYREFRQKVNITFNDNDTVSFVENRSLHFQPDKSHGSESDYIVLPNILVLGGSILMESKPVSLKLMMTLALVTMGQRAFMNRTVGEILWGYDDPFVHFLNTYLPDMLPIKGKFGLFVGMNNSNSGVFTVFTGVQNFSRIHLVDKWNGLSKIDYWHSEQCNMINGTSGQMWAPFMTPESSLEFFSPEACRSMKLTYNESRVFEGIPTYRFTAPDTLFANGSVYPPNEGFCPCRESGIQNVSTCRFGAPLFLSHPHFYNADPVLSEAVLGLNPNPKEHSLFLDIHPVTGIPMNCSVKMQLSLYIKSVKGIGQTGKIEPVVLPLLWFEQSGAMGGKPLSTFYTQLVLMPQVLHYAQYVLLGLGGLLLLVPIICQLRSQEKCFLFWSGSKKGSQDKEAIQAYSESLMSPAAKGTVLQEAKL
The experiment in a line: inhibitors of SR-BI dependent HDL uptake, dose response, ldlA[mSR-BI] CHO cells, fluorescence plate reader, dry powder, set 9 (AID 623880). It counts as functional, cell-based.

The target in experiment [4] is T1, Scavenger receptor class B member 1. The experiment in a line: inhibitors of SR-BI-mediated HDL uptake, dose response, cell-based, ldlA[mSR-BI] CHO, DiI fluorescence, dry powder, set 10 (AID 624029). It counts as functional.
Experiment [5] in a line: NIH/3T3 fibroblast cytotoxicity, dose response, cytotoxicity control, cell-based, plate reader, dry powder, set 2 (AID 652280). It counts as functional. Conditions: NIH3T3.
Experiment [6] has as its system HEK293. The experiment in a line: HEK293T cell cytotoxicity, dose response, cytotoxicity control, ATP luminescence, cherry-pick samples (AID 687005).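 Also: cells exposed to compound for 48 hours.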 It counts as functional, cell-based. As to conditions: Homo sapiens.
Experiment [7] can be described thus: HEK293 Cytotoxicity Assay Measured in Cell-Based System Using Plate Reader - 7071-01_Inhibitor_Dose_CherryPick_Activity_Set2. In kind it is functional.
In experiment [8] the target is Protein Wnt-3a (Mus musculus, UniProt P27467). The experiment in a line: SAR analysis of small molecule antagonists of Gli-SUFU in a Wnt3a luminescent reporter assay. In kind it is functional.
Protein Wnt-3a, sequence (P27467 whole entry): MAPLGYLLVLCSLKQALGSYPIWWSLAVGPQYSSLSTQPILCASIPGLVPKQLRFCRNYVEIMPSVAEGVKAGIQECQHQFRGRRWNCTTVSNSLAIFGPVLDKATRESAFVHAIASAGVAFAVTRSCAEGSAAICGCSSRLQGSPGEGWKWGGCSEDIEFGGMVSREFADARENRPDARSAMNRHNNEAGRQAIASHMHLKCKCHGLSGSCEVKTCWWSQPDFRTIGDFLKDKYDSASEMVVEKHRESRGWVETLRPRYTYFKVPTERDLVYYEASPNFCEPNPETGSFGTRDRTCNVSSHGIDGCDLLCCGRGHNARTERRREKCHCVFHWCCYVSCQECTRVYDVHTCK
A short description of experiment [9]: A Cell-Based Confirmatory Screen for Compounds that Inhibit VEEV, TC-83 (3). In kind it is functional.
The nature of experiment [10]: cells. It counts as functional, cell-based.
Experiment [11] deals with T2, Trace amine-associated receptor 1 (Homo sapiens, UniProt Q96RJ0). The experiment in a line: Fluorescence-based cell-based high throughput dose response assay to identify agonists of the human trace amine associated receptor 1 (TAAR1). In kind it is functional.
T2 sequence (Q96RJ0 whole entry): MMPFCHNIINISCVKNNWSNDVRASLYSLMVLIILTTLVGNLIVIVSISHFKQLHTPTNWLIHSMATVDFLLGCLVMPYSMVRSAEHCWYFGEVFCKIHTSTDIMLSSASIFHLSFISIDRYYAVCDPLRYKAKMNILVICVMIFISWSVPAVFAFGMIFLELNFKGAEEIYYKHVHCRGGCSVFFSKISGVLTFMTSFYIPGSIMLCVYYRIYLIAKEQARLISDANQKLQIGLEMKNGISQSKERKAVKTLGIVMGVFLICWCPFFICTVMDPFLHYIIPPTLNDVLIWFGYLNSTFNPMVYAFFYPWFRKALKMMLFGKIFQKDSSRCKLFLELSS
Experiment [12] deals with T2, Trace amine-associated receptor 1. The experiment in a line: Counterscreen for agonists of the human trace amine associated receptor 1 (hTAAR1): Fluorescence-based cell-based high throughput dose response assay to identify hTAAR1 agonist that also desensitize TAAR1 receptor response. In kind it is functional.
The nature of experiment [13]: cells. In kind it is functional, cell-based. The source holds these as a separate data set.

Regarding `CC(C)Oc1[nH]cnc2c3ccccc3nc1-2`, in experiment [1], the AC50 was 9.38 µM (active).
As for `CCC(=O)N1CC[C@@H]2[C@H]1c1cc(-c3ccccc3)ccc1N(C)[C@@H]2CO`, in experiment [2], the AC50 was 8.49 µM (active).
Turning to `C[C@@H]1CN([C@H](C)CO)C(=O)c2cc(NC(=O)Cc3cn(C)c4ccccc34)ccc2O[C@H]1CN(C)S(=O)(=O)c1ccc(Cl)cc1`, the concentration at half-maximal activity (AC50) in experiment [3] was 0.0155 µM (active); in experiment [4], 0.0313 µM (active).
Consider `Cc1ccccc1-c1ccc([C@H]2[C@H](CO)N3CCCCN(CC4CC4)C[C@@H]23)cc1`, for which the AC50 in experiment [5] is 3.99 µM (active).
Regarding `CCC(=O)N1[C@@H]2Cn3c(cccc3=O)[C@H]1[C@@H](C(=O)NCc1ccccc1)[C@@H]2CO`, the AC50 in experiment [6] and in [7] was 30.2 µM (active) each time.
Regarding `O=C(Nc1cc(N2CCNCC2)ncn1)c1ccccc1`, the IC50 in [8] is > 21.8 µM (inactive).
With `O=C(Cc1ccccc1)Nc1nc2c(s1)CCCC2`, the IC50 in [9] was 9.33 µM (active).
Turning to `Cc1ccc2cc(CNCCc3ccccc3C)c(O)nc2c1`, the IC50 in experiment [10] was > 29.9 µM (inactive); in experiment [12] it was 3.54 µM (active). Besides, the values for the EC50 in [11] and in experiment [13] were 2.34 µM (active) and > 29.9 µM (inactive), respectively.

A word on the AC50: it is the concentration at which the activity in the assay is half-maximal. Broadly, the IC50 is the concentration at which inhibition is half-maximal. By EC50 is commonly meant the concentration giving half of the maximal effect.
